From patent US5136090A, “Biphenyl-5,5'-bis-alkanoic acid derivatives, their production and aldose reductase inhibitors containing the same” (Toyo Jozo Kabushiki Kaisha, priority 1990, dated 1992) come the findings set out here.

Experiment [1] concerns the target T1, partially purified bovine lens aldose reductase (Bos taurus, UniProt P16116).
T1 construct: partially purified bovine lens aldose reductase; from tissue; host or cells: bovine lens
The experiment can be described thus: Inhibitory activity on aldose reductase enzyme reaction. The experiment is classed as biochemical. To be noted: for inhibition at 0.1 µg/mL: concentration 0.1 μg/ml; for inhibition at 1 µg/mL: concentration 1.0 μg/ml; for inhibition at 0.02 µg/mL: concentration 0.02 μg/ml. The method, then:
The preparation of aldose reductase and the determination of its inhibitory action on enzyme reaction activity were carried out pursuant to the procedures disclosed by Haymann et al. in Journal of Biological Chemistry, 240, 877 (1965).
The sample solution to be examined for inhibitory activity was prepared by dissolving a compound of formula (I) according to the present invention in a small amount of methanol and increasing the volume of the resulting methanol solution by diluting it with distilled water up to tenfold volume. A partially purified bovine lens aldose reductase was used for the assay.
To 2.4 ml of a solution of 5×10^-5 M NADPH dissolved in a 2/15M phosphate buffer solution (pH 6.0), 0.4 ml of the enzyme solution (15 m units/ml) and 0.1 ml of the sample solution to be examined were added and the mixture was introduced into a quartz cell in a photoelectric photometer and subjected to pre-incubation at 37° C. for 4 mins. Then, 0.1 ml of a 0.015M D,L-glyceraldehyde solution was added thereto for initiating the enzyme reaction and the decrease in the optical absorption at 340 nm was measured at 37° C. for 4 mins. The inhibitory activity on aldose reductase was calculated by the following equation: [formula] in which A represents the enzyme reaction rate with addition of the inhibitor and B denotes the enzyme reaction rate without addition of the inhibitor.

In a further experiment the test system is Lens. The experiment can be described thus: Suppression of sorbitol accumulation in cultured lens. Type of experiment: cell-based, Wistar rats. To be noted: rat lens cultured 20 hours with 0.9% glucose; for inhibition at 5 µg/mL: concentration 5 μg/ml; for inhibition at 2.5 µg/mL: concentration 2.5 μg/ml. The procedure: (§1) Lenses and sciatic nerves extirpated from Wistar rats, male, aged 7 weeks, were washed twice with an aseptic buffer solution consisting of 0.3% trisaminomethane, 0.8% NaCl, 0.038% KCl, 0.025% Na2 HPO4 ·12H2 O, 0.1% glucose and 1.85 ml/l of concentrated HCl.
(§2) The lenses and the sciatic nerves were then preincubated for 30 mins. in a culture medium prepared by adding 2 ml of 7.5% NaHCO3 aseptic solution and 5.5 ml of aseptic calf fetus serum to 100 ml of an aseptic culture medium of 0.98% TC Medium 199 (NISSUI Corp.) containing 0.01% of dihydrostreptomycin and 0.01% of benzylpenicillin. Thereafter, the intrinsic culture was effected in a culture medium prepared by adding each sample solution to be examined and 0.9% of glucose to the abovementioned culture medium and permitting culturing to proceed for 20 hours. The incubation was effected at 37° C. in an atmosphere composed of 95% air and 5% CO2.
(§3) After culturing, the cultured samples of lens and sciatic nerve were removed from the culture medium to filter paper and the weight of each of them was measured after the adherent culture solution had been blown off. Then, each of the cultured samples was homogenized with the addition of 1 ml of a cold 8% HClO4 solution and the homogenized mixture was subjected to centrifugation at 10,000 G for 10 mins., whereby a supernatant was obtained. The resulting precipitate was then homogenized again with addition thereto of 0.5 ml of cold 8% HClO4 solution and the homogenized mixture was again subjected to centrifugation in a similar way as above to obtain a further supernatant. This was combined with the previously obtained supernatant and the resulting solution was neutralized with 2N KOH aq. solution and was supplemented with distilled water to a volume of 5 ml. The precipitate formed by neutralization was separated by centrifugation at 3,000 rpm for 10 mins. and the resulting supernatant was employed as the sample for determining the sorbitol content.
(§4) The determination of the sorbitol content in the lens and in the sciatic nerve was carried out in accordance with the method of Bergmeyer in "Methods of Enzymatic Analysis" edited by H. U. Bergmeyer, pp 1323-1326, Academic Press, New York, 1974 and in accordance with the method of Malaon et al. in "Diabetes" 29, 861-864 (1980).
(§5) To 0.5 ml cf the sample solution for determination of sorbitol content obtained as above, 0.9 ml of 0.1M glycine-KOH buffer solution (pH 9.4) containing 1 mM of NAD^+ and 0.1 ml of a solution of sorbitol dehydrogenase of 20 units/ml were added and the resulting mixture was subjected to incubation at 37° C. for 1 hour.
(§6) The content of sorbitol in each tissue was estimated by assuming the increment of the optical absorption at 340 nm to be proportional to the amount of NADH produced by the reaction for the lens and by detecting the fluorescence with an excitation wavelength of 366 nm and a fluorescence wavelength of 425 nm for the sciatic nerve.
(§7) The activity for suppressing accumulation of sorbitol, i.e. the aldose reductase inhibiting activity, was calculated from the determined sorbitol content by the calculation formula [formula] in which A denotes the content of sorbitol per unit weight of the tissue after cultivation with addition of the inhibitor, B denotes the sorbitol content per unit weight of the tissue after cultivation without addition of the inhibitor and C represents the sorbitol content per unit weight of the tissue after cultivation in the medium without addition of glucose and inhibitor.

Another experiment concerns Sciatic Nerve. Nature of the experiment: Suppression of sorbitol accumulation in cultured sciatic nerve. The experiment is classed as cell-based, Wistar rats. To be noted: Rattus norvegicus, 20 h, concentration 1.0 μg/ml; rat sciatic nerve cultured 20 hours with 0.9% glucose. The procedure: as §1, §2, §3, §4, §5, §6, §7

A word on the inhibition: it is the drop in the measured response relative to a control, in per cent. For the compound `CCCCCCCOc1ccc(CCC(=O)O)cc1-c1cc(CCC(=O)O)ccc1O` [Example 9, 2-heptyloxy-2'-hydroxy-5,5'-bis (2-carboxyethyl) biphenyl], in experiment [1], the inhibition at 0.1 µg/mL was found to be 65.3% and the inhibition at 1 µg/mL is 91.9%. At 5 µg/mL the inhibition in the experiment on Lens was 65%. This compound also gave an inhibition at 1 µg/mL with Sciatic Nerve of 37.8%.
The matching figures for `CCCCCCCCOc1ccc(CCC(=O)O)cc1-c1cc(CCC(=O)O)ccc1O` [Example 10, 2-octyloxy-2'-hydroxy-5,5'-bis (2-carboxyethyl) biphenyl]: 67.4%, 93.7%, 37.7% and 33.6%.
On the same counts, the results for `CC(C)CCOc1ccc(CCC(=O)O)cc1-c1cc(CCC(=O)O)ccc1O` [Example 12, 2-isopentyloxy-2'-hydroxy-5, 5'-bis (2-carboxyethyl) biphenyl] are 61.9%, 89.1%, 78.1% and 59.5%.
On to `COc1ccc(CCC(=O)O)cc1-c1cc(CCC(=O)O)ccc1O` [Example 16, 2-methoxy-2'-hydroxy-5,5'-bis (2-carboxyethyl) biphenyl], for which, in experiment [1], the inhibition at 0.02 µg/mL came out at 21.1% and the inhibition at 0.1 µg/mL is 51.4%. This compound came in with an inhibition at 2.5 µg/mL with Lens of 59.3%. The same compound returned an inhibition at 1 µg/mL in the experiment with Sciatic Nerve of 47.7%.
Regarding `CCOc1ccc(CCC(=O)O)cc1-c1cc(CCC(=O)O)ccc1O` [Example 17, 2-ethoxy-2'-hydroxy-5,5'-bis (2-carboxyethyl) biphenyl], in experiment [1], the inhibition at 0.02 µg/mL worked out at 19.5% and 0.1 µg/mL produced 55% inhibition. This compound showed an inhibition at 2.5 µg/mL in the experiment with Lens of 47.2%. Moreover, the inhibition at 1 µg/mL with Sciatic Nerve is 69.2%.
On the same counts, the results for `COc1ccc(CCCC(=O)O)cc1-c1cc(CCCC(=O)O)ccc1O` [Example 21, 2-methoxy-2'-hydroxy-5,5'-bis (3-carboxypropyl) biphenyl] are 14.7%, 52.7%, 48.8% and 75.4%.
The matching figures for `CCCOc1ccc(CCCC(=O)O)cc1-c1cc(CCCC(=O)O)ccc1O` [Example 23, 2-propoxy-2'-hydroxy-5,5'-bis (3-carboxypropyl) biphenyl]: 33.6%, 69.2%, 55.3% and 81.1%.
